The target of experiment [1] is T1, human TLR9 (Homo sapiens, UniProt Q9NR96).
T1 construct: host or cells: HEK-Blue cells
T1 sequence (Q9NR96 26-1032): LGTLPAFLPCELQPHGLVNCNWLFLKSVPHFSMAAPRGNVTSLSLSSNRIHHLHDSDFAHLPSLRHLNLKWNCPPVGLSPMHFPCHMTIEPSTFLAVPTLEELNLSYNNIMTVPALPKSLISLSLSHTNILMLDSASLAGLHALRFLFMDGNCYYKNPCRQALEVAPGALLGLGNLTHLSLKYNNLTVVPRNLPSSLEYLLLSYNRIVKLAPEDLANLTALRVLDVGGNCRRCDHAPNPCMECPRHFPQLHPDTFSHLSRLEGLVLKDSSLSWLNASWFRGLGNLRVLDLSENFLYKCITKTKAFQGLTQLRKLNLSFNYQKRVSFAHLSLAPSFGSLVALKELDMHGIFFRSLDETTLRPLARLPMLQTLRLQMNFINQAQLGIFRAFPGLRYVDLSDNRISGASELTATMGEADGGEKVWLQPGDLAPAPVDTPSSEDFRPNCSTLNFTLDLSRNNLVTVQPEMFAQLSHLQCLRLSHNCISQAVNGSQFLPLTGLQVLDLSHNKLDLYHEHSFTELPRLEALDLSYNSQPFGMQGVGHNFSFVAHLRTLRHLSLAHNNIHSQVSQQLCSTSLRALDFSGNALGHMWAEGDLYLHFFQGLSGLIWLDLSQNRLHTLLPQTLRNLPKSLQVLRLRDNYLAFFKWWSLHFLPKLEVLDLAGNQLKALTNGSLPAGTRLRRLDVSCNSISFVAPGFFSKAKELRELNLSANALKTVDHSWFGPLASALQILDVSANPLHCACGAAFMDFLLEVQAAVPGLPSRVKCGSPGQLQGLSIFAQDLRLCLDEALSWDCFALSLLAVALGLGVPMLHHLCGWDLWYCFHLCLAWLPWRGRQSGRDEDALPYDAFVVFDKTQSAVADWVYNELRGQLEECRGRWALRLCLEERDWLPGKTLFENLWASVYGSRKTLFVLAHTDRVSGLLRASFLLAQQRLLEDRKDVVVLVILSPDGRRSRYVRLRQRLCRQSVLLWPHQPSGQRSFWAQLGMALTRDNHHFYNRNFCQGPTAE
The experiment can be described thus: TLR9 inhibition reporter assay (HEK-Blue SEAP). The experiment is classed as cell-based. The note with it: HEK-Blue cells overexpressing human TLR9, ODN2006 5 nM, 22 hour incubation. In short, it runs like this: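 HEK-Blue cells overexpressing human TLR7, TLR8 or TLR9 carry a SEAP reporter driven by NF-κB/AP-1 sites. Compounds (0.05 nM–50 μM) were preincubated 30 min at room temperature, then cells were stimulated with gardiquimod 7.5 μM (TLR7), R848 15.9 μM (TLR8) or ODN2006 5 nM (TLR9) for 22 h at 37 °C.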

Experiment [2] concerns the target T2, human TLR7 (Homo sapiens, UniProt Q9NYK1).
T2 construct: host or cells: HEK-Blue cells
T2 sequence (Q9NYK1 27-1049): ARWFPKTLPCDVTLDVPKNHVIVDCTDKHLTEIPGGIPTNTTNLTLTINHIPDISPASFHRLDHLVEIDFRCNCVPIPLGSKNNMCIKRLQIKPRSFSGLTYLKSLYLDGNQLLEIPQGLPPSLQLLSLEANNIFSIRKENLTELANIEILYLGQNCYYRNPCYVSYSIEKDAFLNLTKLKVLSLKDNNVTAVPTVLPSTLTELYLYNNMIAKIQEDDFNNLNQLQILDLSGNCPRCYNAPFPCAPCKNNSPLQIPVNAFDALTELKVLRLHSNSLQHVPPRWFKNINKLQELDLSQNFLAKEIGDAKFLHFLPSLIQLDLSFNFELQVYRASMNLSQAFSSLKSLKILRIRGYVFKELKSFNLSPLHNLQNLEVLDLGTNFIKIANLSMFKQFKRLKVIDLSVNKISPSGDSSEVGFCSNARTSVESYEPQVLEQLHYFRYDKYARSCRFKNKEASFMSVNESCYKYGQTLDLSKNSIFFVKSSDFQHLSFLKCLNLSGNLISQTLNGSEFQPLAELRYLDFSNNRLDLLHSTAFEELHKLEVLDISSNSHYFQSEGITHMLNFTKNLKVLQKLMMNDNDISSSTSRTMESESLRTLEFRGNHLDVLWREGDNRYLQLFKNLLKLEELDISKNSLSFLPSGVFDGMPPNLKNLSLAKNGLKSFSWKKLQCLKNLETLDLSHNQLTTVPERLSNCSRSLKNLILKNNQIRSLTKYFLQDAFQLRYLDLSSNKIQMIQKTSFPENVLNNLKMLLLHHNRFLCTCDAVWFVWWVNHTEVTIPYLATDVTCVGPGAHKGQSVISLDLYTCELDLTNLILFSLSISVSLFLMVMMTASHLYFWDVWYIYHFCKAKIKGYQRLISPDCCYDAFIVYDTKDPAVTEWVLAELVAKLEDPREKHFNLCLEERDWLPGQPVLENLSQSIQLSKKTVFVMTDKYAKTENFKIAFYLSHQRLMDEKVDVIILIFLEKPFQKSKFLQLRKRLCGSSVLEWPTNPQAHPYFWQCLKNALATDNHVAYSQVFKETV
Briefly: TLR7 inhibition reporter assay (HEK-Blue SEAP). Type of experiment: cell-based. The note with it: HEK-Blue cells overexpressing human TLR7, gardiquimod 7.5 μM, 22 hour incubation. In outline: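 SEAP readout via HEK-Blue Detection medium after 22 h at 37 °C, 5% CO2 defines inhibition, normalized between agonist-plus-DMSO wells and a reference inhibitor. Compound dose range 0.05 nM–50 μM; TLR7 cells at 15,000/well (gardiquimod), TLR8 at 20,000/well (R848).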
Background: In a reporter assay the amount or activity of a reporter protein is the signal.

The structures appear in SMILES notation. Bounds are passed on as bounds.

For orientation: IC50 means the point on the concentration scale where inhibition reaches its midpoint. `COc1cc(-c2cc3[nH]c(=O)n(C4CCC(N5CCC(S(C)(=O)=O)C5)CC4)c3cc2C(C)C)cn2ncnc12` (single isomer, unassigned) [Example 289, 6-isopropyl-5-(8-methoxy-[1,2,4]triazolo[1,5-a]pyridin-6-yl)-1-(4-(3-(methylsulfonyl)pyrrolidin-1-yl)cyclohexyl)-1,3-dihydro-2H-benzo[d]imidazol-2-one]: the IC50 was more than 50000 nM in experiment [1] and 11.9 nM in experiment [2].

For `COc1c(C)c(-c2cc3[nH]c(=O)n(C4CCC(N5CC(OC)C5)CC4)c3cc2C(C)C)cn2ncnc12` (stereo not shown) [Example 265, 6-isopropyl-5-(8-methoxy-7-methyl-[1,2,4]triazolo[1,5-a]pyridin-6-yl)-1-(4-(3-methoxyazetidin-1-yl)cyclohexyl)-1,3-dihydro-2H-benzo[d]imidazol-2-one], the IC50 in experiment [1] was determined as 19100 nM; in experiment [2] it was 7.18 nM.

Consider `Cc1c(-c2cc3[nH]c(=O)n(C4CCC(N5CC6(COC6)C5)CC4)c3cc2C(C)C)cn2ncnc2c1C` (single isomer, unassigned) [Example 298], for which the 50% inhibitory concentration (IC50) in experiment [1] was found to be 3790 nM; in experiment [2] it was 16.5 nM.

For `COc1c(C)c(-c2cc3[nH]c(=O)n(C4CCC(N5CC(F)C5)CC4)c3cc2C(C)C)cn2ncnc12` (single isomer, unassigned) [Example 264, 1-(4-(3-fluoroazetidin-1-yl)cyclohexyl)-6-isopropyl-5-(8-methoxy-7-methyl-[1,2,4]triazolo[1,5-a]pyridin-6-yl)-1,3-dihydro-2H-benzo[d]imidazol-2-one], the IC50 in experiment [1] was 17500 nM; in experiment [2], 28.4 nM.

Take `Cc1c(-c2cc3[nH]c(=O)n(C4CCC(N5CCC(F)(F)CC5)CC4)c3cc2C(C)C)cn2ncnc2c1C` (single isomer, unassigned) [Example 275, 1-(4-(4,4-difluoropiperidin-1-yl)cyclohexyl)-5-(7,8-dimethyl-[1,2,4]triazolo[1,5-a]pyridin-6-yl)-6-isopropyl-1,3-dihydro-2H-benzo[d]imidazol-2-one]: the IC50 in experiment [1] was found to be 19900 nM; in experiment [2], 13.7 nM.

With `Cc1c(-c2cc3[nH]c(=O)n(C4CCC(N5CC6(COC6)C5)CC4)c3cc2C(C)C)cn2ncnc2c1C` (single isomer, unassigned) [Example 281, 1-(4-(2-oxa-6-azaspiro[3.3]heptan-6-yl)cyclohexyl)-5-(7,8-dimethyl-[1,2,4]triazolo[1,5-a]pyridin-6-yl)-6-isopropyl-1,3-dihydro-2H-benzo[d]imidazol-2-one], the IC50 in experiment [1] was determined as 13100 nM; in experiment [2] it was 12.4 nM.

Regarding `Cc1c(-c2cc3[nH]c(=O)n(C4CCC(N5CC(F)C5)CC4)c3cc2C(C)C)cn2ncnc2c1C` (stereo not shown) [Example 279, 5-(7,8-dimethyl-[1,2,4]triazolo[1,5-a]pyridin-6-yl)-1-(4-(3-fluoroazetidin-1-yl)cyclohexyl)-6-isopropyl-1,3-dihydro-2H-benzo[d]imidazol-2-one], the IC50 amounted to 10800 nM in experiment [1] and 2.89 nM in experiment [2].

Regarding `Cc1c(-c2cc3[nH]c(=O)n(C4CCC(N5CCCOCC5)CC4)c3cc2C(C)C)cn2ncnc2c1C` (stereo not shown) [Example 272, 1-(4-(1,4-oxazepan-4-yl)cyclohexyl)-5-(7,8-dimethyl-[1,2,4]triazolo[1,5-a]pyridin-6-yl)-6-isopropyl-1,3-dihydro-2H-benzo[d]imidazol-2-one], the values for the IC50 in experiment [1] and in experiment [2] were 6750 nM and 5.37 nM, respectively.

Turning to `COc1c(C)c(-c2cc3[nH]c(=O)n(C4CCC(N5CC(F)C5)CC4)c3cc2C(C)C)cn2ncnc12` (single isomer, unassigned) [Example 263, 1-(4-(3-fluoroazetidin-1-yl)cyclohexyl)-6-isopropyl-5-(8-methoxy-7-methyl-[1,2,4]triazolo[1,5-a]pyridin-6-yl)-1,3-dihydro-2H-benzo[d]imidazol-2-one], the IC50 in experiment [1] was 19700 nM; in experiment [2], 7.93 nM.

For `COc1c(C)c(-c2cc3[nH]c(=O)n(C4CCC(N5CC6(COC6)C5)CC4)c3cc2C(C)C)cn2ncnc12` (single isomer, unassigned) [Example 270, 1-(4-(2-oxa-6-azaspiro[3.3]heptan-6-yl)cyclohexyl)-6-isopropyl-5-(8-methoxy-7-methyl-[1,2,4]triazolo[1,5-a]pyridin-6-yl)-1,3-dihydro-2H-benzo[d]imidazol-2-one], the 50% inhibitory concentration (IC50) in experiment [1] was 11600 nM; in experiment [2], 19.3 nM.

With `COc1cc(-c2cc3[nH]c(=O)n(C4CCC(N(C)CCC(F)(F)F)CC4)c3cc2C(C)C)cn2ncnc12` (single isomer, unassigned) [Example 249, 6-isopropyl-5-(8-methoxy-[1,2,4]triazolo[1,5-a]pyridin-6-yl)-1-(4-(methyl(3,3,3-trifluoropropyl)amino)cyclohexyl)-1,3-dihydro-2H-benzo[d]imidazol-2-one], the IC50 in experiment [1] came to 2000 nM; in experiment [2] it was 0.5 nM.

With `Cc1cc2c(cc1-c1cc(C)c3ncnn3c1)[nH]c(=O)n2C1CCNCC1` [1 EA, 6-methyl-5-(8-methyl-[1,2,4]triazolo[1,5-a]pyridin-6-yl)-1-(piperidin-4-yl)-1,3-dihydro-2H-benzo[d]imidazol-2-one], the IC50 was found to be 5450 nM in experiment [1] and 344 nM in experiment [2].

Take `COc1cc(-c2cc3[nH]c(=O)n(C4CCC(N5CC(F)(F)C5)CC4)c3cc2C(C)C)cn2ncnc12` (single isomer, unassigned) [Example 297]: the IC50 in experiment [1] is 16200 nM; in experiment [2], 37.1 nM.

For `COc1cc(-c2cc3[nH]c(=O)n(C4CCC(N5CC6(C5)CS(=O)(=O)C6)CC4)c3cc2C(C)C)cn2ncnc12` (single isomer, unassigned) [Example 245, 1-(4-(2,2-dioxido-2-thia-6-azaspiro[3.3]heptan-6-yl)cyclohexyl)-6-isopropyl-5-(8-methoxy-[1,2,4]triazolo[1,5-a]pyridin-6-yl)-1,3-dihydro-2H-benzo[d]imidazol-2-one], the IC50 is 17300 nM in experiment [1] and 5.96 nM in experiment [2].

Values taken from US12187723B2 (BRISTOL-MYERS SQUIBB COMPANY, priority 2019, dated 2025).
